pEC50: −log10 of the molar value.

Experiment [1] relates to NIH3T3. Description: Displacement of human acidic FGF from FGF receptor of mouse 3T3 cells at 0-200 uM. Type of experiment: cell-based.
For experiment [2], the species on record is Mus musculus. Description: Mitogenic effect on BALB/c 3T3 A31 fibroblast culture at 0-200 uM. The experiment is classed as functional. Conditions: BALB/c3T3, read-out: ED50 (the source's name).

Take `CC(=O)N[C@@H](Cc1c[nH]c2ccccc12)C(=O)N[C@@H](Cc1ccccc1)C(=O)N[C@H](C(=O)NCC(=O)N[C@@H](CC(C)C)C(=O)N[C@@H](CCCCN)C(=O)N[C@@H](CCCCN)C(=O)N[C@@H](CC(N)=O)C(=O)NCC(=O)N[C@@H](CO)C(=O)N[C@@H](CO)C(=O)N[C@@H](CCCCN)C(=O)N[C@@H](CCCN=C(N)N)C(=O)NCC(=O)N1CCC[C@@H]1C(=O)N[C@@H](CCCN=C(N)N)C(=O)N[C@H](C(N)=O)[C@@H](C)O)C(C)C`: in experiment [1], the ID50 was determined as 50 µM.
For `CC(=O)N[C@@H](Cc1c[nH]c2ccccc12)C(=O)N[C@@H](Cc1ccccc1)C(=O)N[C@H](C(=O)NCC(=O)N[C@@H](CC(C)C)C(=O)N[C@@H](CCCCN)C(=O)N[C@@H](CCCCN)C(=O)N[C@@H](CC(N)=O)C(=O)NCC(=O)N[C@@H](CO)C(=O)N[C@@H](CO)C(=O)N[C@@H](CCCCN)C(=O)N[C@@H](CCCN=C(N)N)C(=O)NCC(=O)N1CCC[C@H]1C(=O)N[C@@H](CCCN=C(N)N)C(=O)N[C@H](C(N)=O)[C@@H](C)O)C(C)C`, in experiment [2], the pEC50 was 4.70.

The values are drawn from ChEMBL document CHEMBL1144869, “Introduction of a chemical constraint in a short peptide derived from human acidic fibroblast growth factor elicits mitogenic structural determinants” (2003).
